Legend:
[1] = Solubility and stability of 1 wt % triclosan in 2-octyl cyanoacrylate monomer (visual observation); type: physicochemical
Experimental: A 2-octyl cyanoacrylate monomer composition is prepared by adding 1 wt % triclosan to 2 mL of 2-octyl cyanoacrylate monomer. The mixture is sealed in a glass vial or plastic vial and stirred. The characteristics of the composition are observed at about one minute after preparation and later at least twenty-four hours after preparation.

[2] = Compatibility of triclosan/2-octyl cyanoacrylate composition with sterilization (visual observation); type: physicochemical
Experimental: A 2-octyl cyanoacrylate monomer composition is prepared as in Example 1 by adding 1 wt % triclosan to 2 mL of 2-octyl cyanoacrylate monomer. The mixture is sealed in a glass vial or plastic vial and stirred.
After sitting for about twenty-four hours, the mixture contained in the plastic vial is sterilized using electron beam sterilization to a Sterility Assurance Level (SAL) of 10^−6. After sitting for about twenty-four hours, the mixture contained in the glass vial is sterilized using dry heat sterilization to a Sterility Assurance Level (SAL) of 10^−6. The characteristics of the sterilized compositions are observed at about one minute after sterilization and later at least twenty-four hours after sterilization.

## Oc1cc(Cl)ccc1Oc1ccc(Cl)cc1Cl [triclosan, 2,4,4′-trichloro-2 hydroxy di-phenyl ether]
[1]; 1 wt % in 2-octyl cyanoacrylate, about one minute and at least twenty-four hours after preparation
  premature polymerization (stability of monomer composition): does not cause premature polymerization
[1]; 1 wt % in 2 mL 2-octyl cyanoacrylate, observed about one minute and at least twenty-four hours after preparation, solution remains clear
  solubility in the monomer: soluble in the monomer
[2]; 1 wt % in 2-octyl cyanoacrylate, glass vial, SAL 10^-6, solution remains clear
  compatibility with dry heat sterilization: compatible
[2]; 1 wt % in 2-octyl cyanoacrylate, plastic vial, SAL 10^-6, solution remains clear
  compatibility with electron beam sterilization: compatible with electron beam sterilization
[2]; about one minute and at least twenty-four hours after sterilization
  premature polymerization during or after sterilization: does not cause premature polymerization during or after sterilization

— patent US20050042266A1, “Cyanoacrylate compositions containing anti-microbial agent” (priority 2003, published 2005)
